ChEMBL document CHEMBL6182931, “Chemical Evolution of Aplithianine Class of Serine/Threonine Kinase Inhibitors” (J Med Chem, 2025)
Active and inactive are the calls of the source. The calls are words filed in the database; no cut-off is given here.

Legend:
OVCAR-4 = assay: Antiproliferative activity against human OVCAR-4 cells assessed as growth inhibition; type: functional, cell-based
Homo sapiens [1] = species: Homo sapiens; assay: Induction of thermal stabilization of His-tagged DNAJB1-PKAcalpha (unknown origin) incubated for 15 min by differential scanning fluorometric analysis
[2] = Apparent permeability across basolateral to apical side in human Caco-2 cells at 10 uM; type: ADME, cell-based; details: caco-2, 10 µM
[3] = target: RAC-gamma serine/threonine-protein kinase (Homo sapiens) (UniProt Q9Y243); assay: Inhibition of human Akt3 at 50 nM in presence of ATP by radiometric Hotspot kinase assay
[4] = Inhibition of DNAJB1-PKAcalpha (unknown origin) overexpressed in mouse NIH/3T3 cells assessed as inhibition of CREB phosphorylation at Ser133 residue preincubated for 30 mins followed by forskolin addition and measured after 30 mins by fluorescence based multilabel reader analysis; type: cell-based; details: NIH3T3
[5] = Metabolic stability in human liver microsomes assessed as intrinsic clearance at 0.1 uM measured after 60 mins; type: ADME, Microsome; details: 1 h
MOLT-4 = assay: Antiproliferative activity against human MOLT-4 cells assessed as growth inhibition; type: functional
[6] = target: Dual specificity tyrosine-phosphorylation-regulated kinase 1B (Homo sapiens) (UniProt Q9Y463); assay: Inhibition of human DYRK1B at 50 nM in presence of ATP by radiometric Hotspot kinase assay relative to control
hERG (KCNH2) = hERG (KCNH2) (Homo sapiens, UniProt Q12809); assay: Inhibition of human ERG expressed in CHO cells at 10 uM by electrophysiological analysis relative to control; type: toxicity, cell-based; details: CHO cells that express human ERG
Albumin = Albumin (Homo sapiens, UniProt P02768); assay: Binding affinity to human serum albumin assessed as protein binding at 10 uM by equilibrium dialysis technique relative to control; type: ADME; details: isolated protein
SR = assay: Antiproliferative activity against human SR cells assessed as growth inhibition; type: functional
[7] = target: RAC-alpha serine/threonine-protein kinase (Homo sapiens) (UniProt P31749); assay: Inhibition of human Akt1 at 50 nM in presence of ATP by radiometric Hotspot kinase assay
[8] = target: T1, cGMP-dependent protein kinase 1 (Homo sapiens) (UniProt Q13976); details: dose 50.0 nM
T1 sequence (whole entry): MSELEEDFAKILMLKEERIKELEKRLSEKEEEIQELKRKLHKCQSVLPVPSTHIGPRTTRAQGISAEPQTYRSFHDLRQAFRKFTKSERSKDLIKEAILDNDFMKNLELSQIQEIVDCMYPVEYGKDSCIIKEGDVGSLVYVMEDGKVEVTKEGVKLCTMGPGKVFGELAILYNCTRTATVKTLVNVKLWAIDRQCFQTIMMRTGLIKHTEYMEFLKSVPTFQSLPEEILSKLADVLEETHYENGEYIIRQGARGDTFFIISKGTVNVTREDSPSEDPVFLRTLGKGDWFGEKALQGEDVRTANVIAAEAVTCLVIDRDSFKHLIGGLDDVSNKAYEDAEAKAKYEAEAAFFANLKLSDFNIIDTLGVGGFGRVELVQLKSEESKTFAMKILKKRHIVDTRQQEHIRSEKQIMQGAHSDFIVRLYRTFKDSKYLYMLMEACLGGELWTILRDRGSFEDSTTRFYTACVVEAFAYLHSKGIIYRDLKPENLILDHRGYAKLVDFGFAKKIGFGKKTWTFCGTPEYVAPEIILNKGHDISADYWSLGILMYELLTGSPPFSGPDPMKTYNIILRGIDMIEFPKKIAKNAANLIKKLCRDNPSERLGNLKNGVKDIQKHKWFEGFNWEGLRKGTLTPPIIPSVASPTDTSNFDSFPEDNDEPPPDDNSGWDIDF
Description: Inhibition of human PKG1alpha at 50 nM in presence of ATP by radiometric Hotspot kinase assay

MDA-MB-468 = assay: Antiproliferative activity against human MDA-MB-468 cells assessed as growth inhibition; type: functional, cell-based
[9] = target: Receptor-type tyrosine-protein kinase FLT3 (Homo sapiens) (UniProt P36888); assay: Inhibition of human FLT3 at 50 nM in presence of ATP by radiometric Hotspot kinase assay relative to control
[10] = Apparent permeability across apical to basolateral side in human Caco-2 cells at 10 uM; type: ADME, cell-based; details: caco-2, 10 µM
[11] = target: NT-3 growth factor receptor (Homo sapiens) (UniProt Q16288); assay: Inhibition of human TRKC at 50 nM in presence of ATP by radiometric Hotspot kinase assay relative to control
[12] = target: RAC-beta serine/threonine-protein kinase (Homo sapiens) (UniProt P31751); assay: Inhibition of human Akt2 at 50 nM in presence of ATP by radiometric Hotspot kinase assay
[13] = target: Dual specificity protein kinase CLK4 (Homo sapiens) (UniProt Q9HAZ1); assay: Inhibition of human CLK4 at 50 nM in presence of ATP by radiometric Hotspot kinase assay relative to control
[14] = target: cAMP-dependent protein kinase catalytic subunit beta (Homo sapiens) (UniProt P22694); assay: Inhibition of human PKAbeta at 50 nM in presence of ATP by radiometric Hotspot kinase assay
[15] = target: Dual specificity tyrosine-phosphorylation-regulated kinase 1A (Homo sapiens) (UniProt Q13627); assay: Inhibition of human DYRK1A at 50 nM in presence of ATP by radiometric Hotspot kinase assay relative to control
LOX IMVI = assay: Antiproliferative activity against human LOX IMVI cells assessed as growth inhibition; type: functional
NCI/ADR-RES = assay: Antiproliferative activity against human NCI/ADR-RES cells assessed as growth inhibition; type: functional, cell-based
[16] = target: Dual specificity protein kinase CLK2 (Homo sapiens) (UniProt P49760); assay: Inhibition of human CLK2 at 50 nM in presence of ATP by radiometric Hotspot kinase assay relative to control
[17] = target: Dual specificity protein kinase CLK1 (Homo sapiens) (UniProt P49759); assay: Inhibition of human CLK1 at 50 nM in presence of ATP by radiometric Hotspot kinase assay relative to control
[18] = Metabolic stability in human liver microsomes assessed as half-life at 0.1 uM measured after 60 mins; type: ADME, Microsome; details: 1 h
[19] = Drug metabolism in human liver microsomes at 0.1 uM measured after 60 mins; type: ADME, Microsome; details: 1 h
[20] = Aqueous solubility of compound in PBS at pH 7.4 by shake-flask method; type: physicochemical
[21] = Inhibition of DNAJB1-PKAcalpha (unknown origin) using biotinylated-peptide substrate CREB incubated for 45 mins in presence of ATP and cAMP by ELISA; set-up: species or system Homo sapiens
[22] = tested on: Panel NCI-60 (60 carcinoma cell lines); assay: Antiproliferative activity against human Panel NCI-60 (60 carcinoma cell lines) assessed as growth inhibition; type: functional
[23] = target: Dual specificity protein kinase CLK3 (Homo sapiens) (UniProt P49761); assay: Inhibition of human CLK3 at 50 nM in presence of ATP by radiometric Hotspot kinase assay relative to control
[24] = target: T2, Dual specificity tyrosine-phosphorylation-regulated kinase 3 (Homo sapiens) (UniProt O43781); assay: Inhibition of human DYRK3 at 50 nM in presence of ATP by radiometric Hotspot kinase assay relative to control
T2 sequence (whole entry): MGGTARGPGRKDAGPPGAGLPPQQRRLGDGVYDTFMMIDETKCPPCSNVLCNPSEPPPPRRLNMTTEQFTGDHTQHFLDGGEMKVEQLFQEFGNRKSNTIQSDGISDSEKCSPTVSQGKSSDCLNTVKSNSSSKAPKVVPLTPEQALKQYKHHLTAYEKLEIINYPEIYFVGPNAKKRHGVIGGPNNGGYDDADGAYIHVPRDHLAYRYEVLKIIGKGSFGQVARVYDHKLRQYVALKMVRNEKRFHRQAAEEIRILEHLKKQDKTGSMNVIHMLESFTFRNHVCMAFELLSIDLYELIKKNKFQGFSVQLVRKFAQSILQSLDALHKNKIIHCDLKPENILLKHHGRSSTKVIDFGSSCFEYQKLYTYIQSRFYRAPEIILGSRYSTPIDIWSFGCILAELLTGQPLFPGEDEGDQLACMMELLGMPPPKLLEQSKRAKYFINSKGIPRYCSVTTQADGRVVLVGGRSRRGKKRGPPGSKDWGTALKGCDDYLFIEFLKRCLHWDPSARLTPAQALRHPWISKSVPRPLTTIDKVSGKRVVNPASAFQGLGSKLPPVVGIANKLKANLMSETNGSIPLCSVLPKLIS

[25] = target: Dual specificity tyrosine-phosphorylation-regulated kinase 4 (Homo sapiens) (UniProt Q9NR20); assay: Inhibition of human DYRK4 at 50 nM in presence of ATP by radiometric Hotspot kinase assay relative to control
[26] = target: T3, Dual specificity tyrosine-phosphorylation-regulated kinase 2 (Homo sapiens) (UniProt Q92630); assay: Inhibition of human DYRK2 at 50 nM in presence of ATP by radiometric Hotspot kinase assay relative to control
T3 sequence (whole entry): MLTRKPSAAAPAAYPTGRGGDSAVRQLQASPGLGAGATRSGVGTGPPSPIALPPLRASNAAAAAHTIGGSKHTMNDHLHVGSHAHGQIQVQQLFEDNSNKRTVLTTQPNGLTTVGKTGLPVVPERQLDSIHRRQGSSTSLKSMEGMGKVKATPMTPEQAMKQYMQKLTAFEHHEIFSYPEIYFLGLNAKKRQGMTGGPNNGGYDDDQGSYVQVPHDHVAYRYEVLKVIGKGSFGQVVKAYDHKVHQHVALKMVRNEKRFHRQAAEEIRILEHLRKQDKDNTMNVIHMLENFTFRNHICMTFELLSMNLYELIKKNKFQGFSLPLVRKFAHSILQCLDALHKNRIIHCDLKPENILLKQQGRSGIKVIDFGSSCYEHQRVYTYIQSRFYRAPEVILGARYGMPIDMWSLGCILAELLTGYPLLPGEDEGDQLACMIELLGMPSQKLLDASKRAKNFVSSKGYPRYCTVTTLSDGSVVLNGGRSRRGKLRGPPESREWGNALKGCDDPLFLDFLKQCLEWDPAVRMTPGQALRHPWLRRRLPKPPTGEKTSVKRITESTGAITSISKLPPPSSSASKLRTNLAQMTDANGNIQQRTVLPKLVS

[27] = target: cAMP-dependent protein kinase catalytic subunit alpha (Homo sapiens) (UniProt P17612); details: dose 50.0 nM
Description: Inhibition of human PKAalpha at 50 nM in presence of ATP by radiometric Hotspot kinase assay relative to control

Homo sapiens [28] = species: Homo sapiens; assay: Induction of thermal stabilization of His-tagged DNAJB1-PKAcalpha (unknown origin) assessed as change in melting temperature incubated for 15 min by differential scanning fluorometric analysis

Sequence of Dual specificity protein kinase CLK1 (Homo sapiens) (P49759 whole entry, looked up): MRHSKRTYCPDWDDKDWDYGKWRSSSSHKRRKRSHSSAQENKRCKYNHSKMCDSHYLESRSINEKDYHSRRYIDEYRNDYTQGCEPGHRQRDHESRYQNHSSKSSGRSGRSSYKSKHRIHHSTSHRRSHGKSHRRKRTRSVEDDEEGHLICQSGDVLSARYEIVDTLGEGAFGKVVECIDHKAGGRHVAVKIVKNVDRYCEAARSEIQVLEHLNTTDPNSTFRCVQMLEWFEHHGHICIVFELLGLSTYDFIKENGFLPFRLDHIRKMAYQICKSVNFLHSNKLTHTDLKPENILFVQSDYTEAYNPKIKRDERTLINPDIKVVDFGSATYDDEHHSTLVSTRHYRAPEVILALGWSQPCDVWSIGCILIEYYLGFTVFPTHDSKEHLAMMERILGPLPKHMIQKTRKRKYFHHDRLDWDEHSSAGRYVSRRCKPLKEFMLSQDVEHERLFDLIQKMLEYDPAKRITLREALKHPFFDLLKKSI
Sequence of Dual specificity protein kinase CLK4 (Homo sapiens) (Q9HAZ1 whole entry, looked up): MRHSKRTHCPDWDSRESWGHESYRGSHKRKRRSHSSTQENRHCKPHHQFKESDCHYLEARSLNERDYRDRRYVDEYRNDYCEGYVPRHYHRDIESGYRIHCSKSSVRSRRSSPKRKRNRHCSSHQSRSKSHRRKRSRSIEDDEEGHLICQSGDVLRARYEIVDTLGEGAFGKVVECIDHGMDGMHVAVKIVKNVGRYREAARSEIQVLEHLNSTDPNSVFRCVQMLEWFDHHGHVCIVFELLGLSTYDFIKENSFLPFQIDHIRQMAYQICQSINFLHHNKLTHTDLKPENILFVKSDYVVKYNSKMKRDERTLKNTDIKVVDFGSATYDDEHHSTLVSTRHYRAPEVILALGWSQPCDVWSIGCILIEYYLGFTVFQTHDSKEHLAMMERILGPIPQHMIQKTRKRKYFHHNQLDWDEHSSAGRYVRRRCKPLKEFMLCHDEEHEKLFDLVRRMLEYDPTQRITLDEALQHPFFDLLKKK
Sequence of Dual specificity tyrosine-phosphorylation-regulated kinase 1B (Homo sapiens) (Q9Y463 whole entry, looked up): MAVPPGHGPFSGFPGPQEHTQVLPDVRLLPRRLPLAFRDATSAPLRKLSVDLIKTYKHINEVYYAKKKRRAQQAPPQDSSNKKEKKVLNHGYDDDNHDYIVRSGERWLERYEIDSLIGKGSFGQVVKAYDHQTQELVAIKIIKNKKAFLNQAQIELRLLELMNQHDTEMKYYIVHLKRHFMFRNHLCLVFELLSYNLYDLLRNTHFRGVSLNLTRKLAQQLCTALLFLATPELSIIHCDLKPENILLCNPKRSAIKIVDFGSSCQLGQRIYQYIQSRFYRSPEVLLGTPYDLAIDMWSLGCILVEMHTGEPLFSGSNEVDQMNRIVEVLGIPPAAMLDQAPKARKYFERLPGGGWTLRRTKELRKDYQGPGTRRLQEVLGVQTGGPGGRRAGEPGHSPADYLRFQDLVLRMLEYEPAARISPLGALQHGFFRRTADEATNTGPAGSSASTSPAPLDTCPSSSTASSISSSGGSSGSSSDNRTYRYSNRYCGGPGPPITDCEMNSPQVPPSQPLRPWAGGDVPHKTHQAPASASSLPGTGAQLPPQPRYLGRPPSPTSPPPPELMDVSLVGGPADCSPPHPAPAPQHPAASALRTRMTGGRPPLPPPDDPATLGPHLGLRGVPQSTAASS
Sequence of Dual specificity protein kinase CLK2 (Homo sapiens) (P49760 whole entry, looked up): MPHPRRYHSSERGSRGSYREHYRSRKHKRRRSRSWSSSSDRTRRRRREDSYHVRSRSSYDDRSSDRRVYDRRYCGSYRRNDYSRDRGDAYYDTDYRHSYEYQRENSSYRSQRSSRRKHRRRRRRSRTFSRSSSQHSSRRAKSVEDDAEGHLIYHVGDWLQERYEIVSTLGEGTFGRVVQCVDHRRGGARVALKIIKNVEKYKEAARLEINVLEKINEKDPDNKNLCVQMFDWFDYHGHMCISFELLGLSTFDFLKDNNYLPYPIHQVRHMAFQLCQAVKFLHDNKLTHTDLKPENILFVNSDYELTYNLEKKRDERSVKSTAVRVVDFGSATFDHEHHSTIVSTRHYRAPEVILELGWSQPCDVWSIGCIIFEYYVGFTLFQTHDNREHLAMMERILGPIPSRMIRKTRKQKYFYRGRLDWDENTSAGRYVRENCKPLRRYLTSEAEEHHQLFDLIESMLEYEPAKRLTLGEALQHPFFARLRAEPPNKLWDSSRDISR
Sequence of Dual specificity protein kinase CLK3 (Homo sapiens) (P49761 whole entry, looked up): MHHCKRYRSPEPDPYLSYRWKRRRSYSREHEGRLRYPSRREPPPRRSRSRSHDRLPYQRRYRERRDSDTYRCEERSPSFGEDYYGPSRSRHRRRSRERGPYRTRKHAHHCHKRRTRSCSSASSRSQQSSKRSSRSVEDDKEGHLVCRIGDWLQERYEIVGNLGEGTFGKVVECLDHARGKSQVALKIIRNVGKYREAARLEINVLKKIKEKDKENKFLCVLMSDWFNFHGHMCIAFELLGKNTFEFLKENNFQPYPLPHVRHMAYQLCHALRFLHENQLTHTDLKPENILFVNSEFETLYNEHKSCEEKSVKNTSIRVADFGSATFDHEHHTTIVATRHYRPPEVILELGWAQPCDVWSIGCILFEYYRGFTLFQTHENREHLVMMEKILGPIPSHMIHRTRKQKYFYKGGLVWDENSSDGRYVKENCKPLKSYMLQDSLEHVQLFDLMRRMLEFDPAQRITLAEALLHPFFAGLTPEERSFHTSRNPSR
Sequence of Dual specificity tyrosine-phosphorylation-regulated kinase 4 (Homo sapiens) (Q9NR20 whole entry): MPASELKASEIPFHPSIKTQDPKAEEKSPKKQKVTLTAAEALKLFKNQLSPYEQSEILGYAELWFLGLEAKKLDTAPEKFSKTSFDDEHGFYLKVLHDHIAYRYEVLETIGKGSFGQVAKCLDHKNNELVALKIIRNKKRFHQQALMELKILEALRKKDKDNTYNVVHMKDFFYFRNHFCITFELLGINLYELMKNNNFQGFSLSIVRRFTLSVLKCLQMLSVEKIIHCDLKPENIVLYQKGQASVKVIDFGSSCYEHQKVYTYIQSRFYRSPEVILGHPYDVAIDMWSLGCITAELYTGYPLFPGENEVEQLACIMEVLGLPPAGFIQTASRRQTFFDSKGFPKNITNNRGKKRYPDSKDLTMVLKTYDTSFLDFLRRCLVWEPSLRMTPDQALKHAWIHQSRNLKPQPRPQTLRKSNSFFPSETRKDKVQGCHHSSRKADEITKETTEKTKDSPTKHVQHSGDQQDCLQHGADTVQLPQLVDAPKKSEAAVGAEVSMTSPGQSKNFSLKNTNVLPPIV
Sequence of RAC-alpha serine/threonine-protein kinase (Homo sapiens) (P31749 whole entry): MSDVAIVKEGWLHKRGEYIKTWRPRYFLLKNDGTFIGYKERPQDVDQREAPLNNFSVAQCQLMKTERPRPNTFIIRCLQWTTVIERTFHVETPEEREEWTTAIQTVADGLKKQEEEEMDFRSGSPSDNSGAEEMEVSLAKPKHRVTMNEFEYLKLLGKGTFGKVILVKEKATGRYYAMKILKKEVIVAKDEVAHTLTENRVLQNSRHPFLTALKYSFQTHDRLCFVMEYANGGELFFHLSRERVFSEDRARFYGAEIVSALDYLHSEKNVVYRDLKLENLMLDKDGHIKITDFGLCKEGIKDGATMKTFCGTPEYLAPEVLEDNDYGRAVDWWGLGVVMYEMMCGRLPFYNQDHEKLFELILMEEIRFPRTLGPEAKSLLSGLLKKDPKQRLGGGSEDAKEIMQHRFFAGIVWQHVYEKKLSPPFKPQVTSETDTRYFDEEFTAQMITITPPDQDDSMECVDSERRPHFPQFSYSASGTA
Sequence of hERG (KCNH2) (Q12809 whole entry): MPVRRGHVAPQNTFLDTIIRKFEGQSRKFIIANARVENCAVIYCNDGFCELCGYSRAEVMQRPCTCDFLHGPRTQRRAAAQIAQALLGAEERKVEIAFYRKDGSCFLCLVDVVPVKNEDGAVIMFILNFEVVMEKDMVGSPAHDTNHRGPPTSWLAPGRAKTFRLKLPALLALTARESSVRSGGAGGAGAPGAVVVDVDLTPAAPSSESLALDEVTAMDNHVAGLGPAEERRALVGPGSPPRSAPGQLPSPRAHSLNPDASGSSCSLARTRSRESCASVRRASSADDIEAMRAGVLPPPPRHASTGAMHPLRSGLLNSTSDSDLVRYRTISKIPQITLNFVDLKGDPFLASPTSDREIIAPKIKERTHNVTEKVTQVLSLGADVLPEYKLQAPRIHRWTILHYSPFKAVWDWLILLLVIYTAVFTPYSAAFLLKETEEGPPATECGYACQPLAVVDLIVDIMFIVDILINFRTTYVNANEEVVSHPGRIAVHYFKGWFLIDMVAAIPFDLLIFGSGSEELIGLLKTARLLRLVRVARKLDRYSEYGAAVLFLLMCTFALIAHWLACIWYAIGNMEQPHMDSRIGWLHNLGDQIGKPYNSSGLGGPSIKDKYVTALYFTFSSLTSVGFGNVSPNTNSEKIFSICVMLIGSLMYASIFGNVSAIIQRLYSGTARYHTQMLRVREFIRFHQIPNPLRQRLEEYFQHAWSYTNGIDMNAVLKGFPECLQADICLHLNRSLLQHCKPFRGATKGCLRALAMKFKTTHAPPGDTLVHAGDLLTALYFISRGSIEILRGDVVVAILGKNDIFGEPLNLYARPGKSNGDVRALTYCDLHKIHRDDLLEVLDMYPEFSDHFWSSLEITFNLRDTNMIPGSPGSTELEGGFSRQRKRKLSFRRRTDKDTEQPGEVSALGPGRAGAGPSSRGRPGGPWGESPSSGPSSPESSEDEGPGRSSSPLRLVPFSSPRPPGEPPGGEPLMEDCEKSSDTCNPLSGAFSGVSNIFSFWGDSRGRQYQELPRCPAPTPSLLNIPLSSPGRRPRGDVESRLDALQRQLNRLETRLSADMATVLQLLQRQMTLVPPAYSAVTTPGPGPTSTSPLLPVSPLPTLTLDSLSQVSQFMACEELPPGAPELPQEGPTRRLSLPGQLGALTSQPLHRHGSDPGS

Compound	Activity (OVCAR-4)	Activity (Homo sapiens [1])	IC50 [4]	Activity (MOLT-4)	inhibition [6]	Activity (SR)	inhibition [8]	Activity (MDA-MB-468)	inhibition [13]	inhibition [14]	inhibition [15]	GI50 (LOX IMVI)	Activity (NCI/ADR-RES)	inhibition [16]	inhibition [17]	IC50 [21]	GI50 [22]	inhibition [23]	inhibition [24]	inhibition [25]	further results
Cc1c[nH]c2ncnc(N3C=C(C(=O)N4CCC[C@@H](N)C4)SCC3)c12	inactive	Dose-dependent-effect	3400 nM	Active	Active	Active	Active	Active	Active	Active	Active	> 1000 nM	inactive	Active	Active						Papp [2]: 6.6 10^-6 cm/s; inhibition [3]: Active; CLH [5]: < 115 µL/min/mg; inhibition at 10 µM (hERG (KCNH2)): 28%; PB (Albumin): 84%; inhibition [7]: Active; inhibition [9]: > 50%; Papp [10]: 0.1 10^-6 cm/s; inhibition [11]: > 50%; inhibition [12]: Active; t1/2 [18]: > 1 h; Drug metabolism [19]: metabolite_notdetected; solubility thermodynamic [20]: > 200 µM
C1=C(c2ccnc3[nH]ccc23)SCCN1c1ccnc2[nH]ccc12	inactive							Active				> 1000 nM	inactive			2800 nM	1550 nM				LC50 (MOLT-4): 780 nM; LC50 (SR): 600 nM
C1=C(c2ccnc3[nH]ccc23)SCCN1c1ncnc2[nH]ccc12	inactive			Active	< 50%	Active	Active	Active	< 50%	Active	< 50%	> 1000 nM	inactive	< 50%	< 50%			< 50%	< 50%	< 50%	inhibition [26]: < 50%
Cn1c(Br)nc(Br)c1C1=CN(c2ncnc3[nH]cnc23)CCS1	inactive			Active		Active		Active				> 1000 nM	inactive				360 nM				
Cn1cncc1N1C=C(c2ccnc3[nH]ccc23)SCC1	inactive	Dose-dependent-effect	5560 nM	Active	< 50%	Active	Active	Active	< 50%	Active	< 50%	> 1000 nM	inactive	< 50%	< 50%	25 nM		< 50%	< 50%	< 50%	inhibition [27]: 47%; ΔTm (Homo sapiens [28]): 6 °C; inhibition [26]: < 50%
